Experimental data as given in patent publication US20260041683A1, “Compounds with Anti-Acinetobacter Baumannii Activity” (University of Kentucky Research Foundation, priority 2022, published 2026).
Converted amounts (≈) assume the structure as drawn. Like-named read-outs stand apart in the source and are kept apart here.

Columns and labels:
[1] = test system: S. epidermidis ATCC 12228; test: MIC determination; format: cell-based; settings: Staphylococcus epidermidis, ATCC12228; Table 5; Mueller-Hinton medium; C = S. epidermidis ATCC 12228; read-out: MIC strain C
Ab ATCC 19606 (strain I) = test: MIC determination (double dilution, Mueller-Hinton broth); format: cell-based, Acinetobacter baumannii; settings: Acinetobacter baumannii, ATCC19606
Description: All bacterial strains listed above were stored at −80° C. All strains were streaked on Mueller-Hinton (MH) plates and allowed to grow at 37° C. overnight. […] The resulting culture was diluted 1:1000 and added to the prepared serially doubly diluted compound solutions in 96-well plates. For M. smegmatis, a 1:100 dilution of the bacteria was done in MH. All MIC values were determined using 96-well plates with low evaporation seals at least in duplicate. For each row, one well was reserved for sterile control (which consisted of 200 μL of MH medium) and another well was reserved for growth control (which consisted of 100 μL of MH medium seeded with 100 μL of bacterial culture).
(§1) Minimum inhibitory concentrations (MIC) of all compounds from the series were measured in liquid cultures of different Ab strains by a double-dilution method in Mueller-Hinton broth. Initially, the activity of all 46 compounds against Ab ATCC 19606 (a control strain) and Ab ATCC BAA1605 (a multidrug-resistant strain) (Table 1; data shown for 27 representative compounds) was measured.

[2] = test system: all 43 strains of A. baumannii (41 CDC strains and 2 ATCC strains); test: MIC value statistics for all A. baumannii strains; format: cell-based, Acinetobacter baumannii; settings: of 43 A. baumannii strains
Description: All bacterial strains listed above were stored at −80° C. All strains were streaked on Mueller-Hinton (MH) plates and allowed to grow at 37° C. overnight. Enough colonies were scraped from the plate and suspended in MH broth with vortexing to reach an attenuance at 600 nm (OD600) of ˜0.5. The resulting culture was diluted 1:1000 and added to the prepared serially doubly diluted compound solutions in 96-well plates. […]. For each row, one well was reserved for sterile control (which consisted of 200 μL of MH medium) and another well was reserved for growth control (which consisted of 100 μL of MH medium seeded with 100 μL of bacterial culture).
Having established that the observed activity is selective to A. baumannii, all synthesized compounds were tested against a panel of antibiotic resistant A. baumannii from the Antimicrobial Resistant (AR) Isolate Bank from the CDC along with strains I and J (Table Si). […]. Based on this statistical analysis, the best compound is 5e followed closely by 3e.

S. aureus ATCC 25923 = test: MIC determination; format: cell-based; settings: Staphylococcus aureus, ATCC25923; Table 5; Mueller-Hinton medium; B = S. aureus ATCC 25923; read-out: MIC strain B
E. cloacae ATCC 13047 = test: MIC determination; format: cell-based; settings: Enterobacter cloacae, ATCC13047; Table 5; Mueller-Hinton medium; E = E. cloacae ATCC 13047; read-out: MIC strain E
E. coli MC1061 = test: MIC determination; format: cell-based; settings: Escherichia coli; Table 5; Mueller-Hinton medium; D = E. coli MC1061; read-out: MIC strain D
Gram-negative bacteria = test: MIC determination, panel statement; format: cell-based; settings: moderate activity
P. aeruginosa ATCC 27853 = test: MIC determination; format: cell-based; settings: Pseudomonas aeruginosa, ATCC27853; Table 5; Mueller-Hinton medium; G = P. aeruginosa ATCC 27853; read-out: MIC strain G
S. enterica ATCC 14028 = test: MIC determination; format: cell-based; settings: Salmonella enterica, ATCC14028; Table 5; Mueller-Hinton medium; H = S. enterica ATCC 14028; read-out: MIC strain H
[3] = test system: Ab ATCC BAA1605 (strain J, multidrug-resistant); test: MIC determination; format: cell-based; settings: Acinetobacter baumannii
Description: All bacterial strains listed above were stored at −80° C. All strains were streaked on Mueller-Hinton (MH) plates and allowed to grow at 37° C. overnight. Enough colonies were scraped from the plate and suspended in MH broth with vortexing to reach an attenuance at 600 nm (OD600) of ˜0.5. The resulting culture was diluted 1:1000 and added to the prepared serially doubly diluted compound solutions in 96-well plates. For M. smegmatis, a 1:100 dilution of the bacteria was done in MH. All MIC values were determined using 96-well plates with low evaporation seals at least in duplicate. For each row, one well was reserved for sterile control (which consisted of 200 μL of MH medium) and another well was reserved for growth control (which consisted of 100 μL of MH medium seeded with 100 μL of bacterial culture).
as §1

B. anthracis Sterne F32 = test: microbe, parasite or virus in culture; format: cell-based; settings: Bacillus anthracis, STERNEF32, read-out: MIC strain A
K. pneumoniae ATCC 27736 = test: MIC determination; format: cell-based; settings: Klebsiella pneumoniae, ATCC27736; Table 5; Mueller-Hinton medium; F = K. pneumoniae ATCC 27736; read-out: MIC strain F
[4] = Table 1, control strain, read-out: MIC Ab ATCC 19606
[5] = Table 5, Mueller-Hinton medium, I = A. baumannii ATCC 19606, read-out: MIC strain I
[6] = Table 1, multidrug-resistant strain, read-out: MIC Ab ATCC BAA 1605
[7] = Table 5, Mueller-Hinton medium, J = A. baumannii BAA1605, read-out: MIC strain J

Row | SMILES | MIC [1] [µg/mL] | MIC (Ab ATCC 19606 (strain I); [4]) [µg/mL] | MIC (Ab ATCC 19606 (strain I); [5]) [µg/mL] | number of compound/strain combinations with MIC value 0.25 μg/mL [2] | number of compound/strain combinations with MIC value 0.5 μg/mL [2] | number of compound/strain combinations with MIC value ≤0.125 μg/mL [2] | MIC (S. aureus ATCC 25923) [µg/mL] | MIC (E. cloacae ATCC 13047) [µg/mL] | MIC (E. coli MC1061) [µg/mL] | MIC (Gram-negative bacteria) [µg/mL] | MIC (P. aeruginosa ATCC 27853) [µg/mL] | MIC (S. enterica ATCC 14028) [µg/mL] | MIC [3, 6] [µg/mL] | MIC [3, 7] [µg/mL] | MIC (B. anthracis Sterne F32) [µg/mL] | MIC (K. pneumoniae ATCC 27736) [µg/mL] | number of compound/strain combinations with MIC value 1 μg/mL [2] | number of compound/strain combinations with MIC value 2 μg/mL [2] | number of compound/strain combinations with MIC value >64 μg/mL [2]
1 | O=C(NNc1ccc(Cl)cc1)c1cccc(F)n1 [Compound 5e] | > 64 | 0.125 (≈ 0.47 µM) | ≤ 0.125 | 21 | 2 | 20 | > 64 | 16 (≈ 60.2 µM) | 16 (≈ 60.2 µM) | 4 to 16 (≈ 15.1 to 60.2 µM) | > 64 | 16 (≈ 60.2 µM) | 0.125 (≈ 0.47 µM) | ≤ 0.125 | > 64 | 16 (≈ 60.2 µM) | – | – | –
2 | O=C(NNc1cccc(F)c1)c1ccc(F)cn1 [Compound 3a] | > 64 | 0.5 (≈ 2.01 µM) | 0.5 (≈ 2.01 µM) | 16 | 18 | 9 | > 64 | > 64 | 64 (≈ 257 µM) | – | > 64 | > 64 | 0.5 (≈ 2.01 µM) | 0.5 (≈ 2.01 µM) | > 64 | > 64 | – | – | –
3 | COc1cccc(NNC(=O)c2ccc(F)cn2)c1 [Compound 3c] | 64 (≈ 245 µM) | 0.5 (≈ 1.91 µM) | 0.5 (≈ 1.91 µM) | 2 | 12 | 1 | > 64 | > 64 | > 64 | – | > 64 | > 64 | 0.5 (≈ 1.91 µM) | 0.5 (≈ 1.91 µM) | > 64 | > 64 | 23 | 5 | –
4 | O=C(NNc1ccc(Cl)cc1)c1ccc2ccccc2n1 [Compound 12e] | > 64 | 0.5 (≈ 1.68 µM) | 0.5 (≈ 1.68 µM) | 7 | 19 | – | > 64 | > 64 | 16 (≈ 53.7 µM) | – | > 64 | > 64 | 0.5 (≈ 1.68 µM) | 0.5 (≈ 1.68 µM) | > 64 | > 64 | 17 | – | –
5 | O=C(NNC1CCCCC1)c1ccc2ccccc2n1 [Compound 12h] | > 64 | – | > 64 | – | – | – | > 64 | > 64 | 64 (≈ 238 µM) | – | > 64 | > 64 | – | > 64 | > 64 | > 64 | – | – | 43
6 | CCOC(=O)CNNC(=O)c1ccc2ccccc2n1 [Compound 12g] | > 64 | – | > 64 | – | – | – | > 64 | > 64 | > 64 | – | > 64 | > 64 | – | > 64 | > 64 | > 64 | – | – | 43
